Data on 16 compounds can be found in patent US20190194148A1, “TETRAZOLE-CONTAINING 1,2-CYCLOPROPANE-CARBOXAMIDES” (Bayer Pharma Aktiengesellschaft, priority 2017, published 2019).

Read-outs that look alike come from different tables or passages of the source.

The target of one assay is T1, human B1 receptor (Homo sapiens, UniProt P46663).
T1 construct: host or cells: CHO-K1
T1 sequence (P46663 1-353): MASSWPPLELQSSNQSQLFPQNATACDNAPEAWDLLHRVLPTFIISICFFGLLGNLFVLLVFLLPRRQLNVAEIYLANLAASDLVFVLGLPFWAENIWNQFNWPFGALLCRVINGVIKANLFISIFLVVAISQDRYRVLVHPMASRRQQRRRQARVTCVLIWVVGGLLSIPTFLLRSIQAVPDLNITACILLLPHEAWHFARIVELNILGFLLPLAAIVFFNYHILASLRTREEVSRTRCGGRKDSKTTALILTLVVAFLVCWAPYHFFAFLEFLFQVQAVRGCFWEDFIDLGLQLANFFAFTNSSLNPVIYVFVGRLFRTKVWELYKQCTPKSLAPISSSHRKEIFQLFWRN
Briefly: Calcium flux assay (FLIPR) with recombinant CHO-K1 cells expressing human B1 receptor. In kind it is cell-based. In outline: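 Indicator-loaded CHO-K1 cells expressing human B1 receptor were pre-incubated with compound (8 concentrations, triplicate, 1% DMSO) for 30 min at 28° C, in assay buffer with or without 0.1% BSA (hB1 IC50 vs free IC50). They were then challenged with Lys-(Des-Arg)-bradykinin from plates at 3.5×EC90, with peak FLIPR fluorescence read at 538 nm. IC50 was fitted from % response between DMSO and full block by 20 μM Lys-(Des-Arg-Leu)-bradykinin.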

Assay [1] concerns the target T2, native human B1 receptors (Homo sapiens, UniProt P46663).
T2 construct: which express native human B1 receptors after induction with human IL-1; Coriell Institute; host or cells: IMR-90 human foetal lung fibroblasts, induced with human IL-1beta
T2 sequence (P46663 1-353): T1 sequence (P46663 1-353)
Briefly: Calcium flux assay (FLIPR) with IMR-90 human fibroblasts for Bradykinin B1 receptor antagonist. In kind it is cell-based. Particulars: IMR-90 human foetal lung fibroblasts after induction with human IL-1; 0.1% BSA in assay buffer; read-out: hB1 IC50 IMR90. The method, then:
Calcium Flux Assay (FLIPR) with Human Fibroblasts for Bradykinin B1 Receptor Antagonist (hB1 IMR-90 IC50)
The Calcium flux Assay was carried out utilising IMR-90 human foetal lung fibroblasts (American Type Culture Collection, Rockville, Md.; and Coriell Institute, Camden, N.J.), which express native human B1 receptors after induction with human IL-1[…].
The fibroblasts were cultured in complete growth media comprised of Dulbecco's modified Eagle's medium (DMEM; Sigma) containing 10% foetal bovine serum, 4 mM L-glutamine, and 1% nonessential amino acids. The cells were maintained in a humidified atmosphere with 5% CO2 at 37° C. and were sub-cultured at a ratio of 1:3, every other day.
For the assay, IMR-90 fibroblasts were harvested using TrypLE Express (GIBCO/Invitrogen) and seeded into 384-well plates (Corning Cellbinding Surface, Cat. 3683) at a density of 15000 cells/well. The following day, cells were treated with 0.35 ng/mL human IL-1[…] in 10% FBS/MEM for 3 h to up-regulate B1 receptors. Induced cells were loaded with fluorescent calcium indicator by incubation with 2.5 μM Fluo-4/AM (Invitrogen) at 37° C., 5% CO2 for 2 h in the presence of 2.5 mM probenecid in 1% FBS/MEM. Extracellular dye was removed by washing with assay buffer (2.5 mM probenecid and 0.1% BSA in 20 mM HEPES/HBSS without bicarbonate or phenol red, pH 7.5). Example compounds were assayed at 8 concentrations in triplicate. […] A peptide antagonist Lys-(Des-Arg-Leu)-Bradykinin (Bachem, Brackley) at 20 µM was used to determine the full inhibition as control. IC50 values were determined by the same way described for the FLIPR assay with recombinant cells.

The mark [2] stands for this setting: absence of 0.1% BSA in assay buffer, read-out: hB1 free IC50.
[3] abbreviates: presence of 0.1% BSA in assay buffer, read-out: hB1 IC50.

Regarding `CCOc1ccc(-c2c(F)cc(NC(=O)C3CC3c3ccc(Cl)cc3)cc2-c2nnn[nH]2)cn1` (racemic) [Example 61, 2-(4-chlorophenyl)-N-[4-(6-ethoxypyridin-3-yl)-3-fluoro-5-(1H-tetrazol-5-yl)phenyl]cyclopropane-carboxamide], the IC50 on human B1 receptor (setting [2]) amounted to 12 nM; in assay [1] it was 44 nM.
Take `Cc1cccc(C2CC2C(=O)Nc2cc(-c3nnn[nH]3)c(-c3ccc(C(F)(F)F)nc3)cc2O)c1` (racemic) [Example 52, N-{2-Hydroxy-5-(1H-tetrazol-5-yl)-4-[6-(trifluoromethyl)pyridin-3-yl]phenyl}-2-(3-methylphenyl)cyclopro-panecarboxamide]: the IC50 at human B1 receptor (setting [2]) worked out at 41 nM; at human B1 receptor (setting [3]), 37 nM; in assay [1], 78 nM.
`CCOc1ccc(-c2ccc(NC(=O)C3(C)CC3c3ccccc3)cc2-c2nnn[nH]2)cn1` (racemic) [Example 21, [4-(6-Ethoxypyridin-3-yl)-3-(1H-tetrazol-5-yl)phenyl]-1-methyl-2-phenylcyclopropane-carboxamide]: the IC50 was 14 nM on human B1 receptor (setting [2]), 22 nM on human B1 receptor (setting [3]) and 22 nM in assay [1].
In the case of `Cc1cccc(C2CC2C(=O)Nc2ccc(-c3ccc(OC(C)C)nc3)c(-c3nnn[nH]3)c2)c1` (racemic) [Example 78, N-[4-(6-isopropoxypyridin-3-yl)-3-(1H-tetrazol-5-yl)phenyl]-2-(3-methylphenyl)cyclopro-panecarboxamide], the IC50 at human B1 receptor (setting [3]) amounted to 10 nM; in assay [1] it was 9 nM.
Regarding `CCOc1ccc(-c2ccc(NC(=O)C3CC3c3cccc(C)c3)cc2-c2nnn[nH]2)cn1` (racemic) [Example 18, N-[4-(6-Ethoxypyridin-3-yl)-3-(1H-tetrazol-5-yl)phenyl]-2-(3-methylphenyl)cyclopro-panecarboxamide], the values for the IC50 (at human B1 receptor (setting [2]); at human B1 receptor (setting [3]); in assay [1]) were 5 nM, 15 nM and 6 nM, respectively.
Consider `CCOc1ccc(-c2cc(O)c(NC(=O)C3CC3c3cccc(C)c3)cc2-c2nnn[nH]2)cn1` (racemic) [Example 51, N-[4-(6-Ethoxypyridin-3-yl)-2-hydroxy-5-(1H-tetrazol-5-yl)phenyl]-2-(3-methylphenyl)cyclopro-panecarboxamide], for which the results for the IC50 (at human B1 receptor (setting [2]); at human B1 receptor (setting [3]); in assay [1]) were 3 nM, 11 nM and 8 nM, respectively.
For `COc1ccc(-c2ccc(NC(=O)C3CC3C3CCCCC3)cc2-c2nnn[nH]2)cc1OC` (single isomer, unassigned) [Example 14, 2-Cyclohexyl-N-[3′,4′-dimethoxy-2-(1H-tetrazol-5-yl)biphenyl-4-yl]cyclopropane-carboxamide], the values for the IC50 (on human B1 receptor (setting [3]); in assay [1]) were 27 nM and 20 nM, respectively.
In the case of `CCOc1ccc(-c2ccc(NC(=O)C3CC3c3cccc(Cl)c3)cc2-c2nnn[nH]2)cn1` (racemic) [Example 19, 2-(3-Chlorophenyl)-N-[4-(6-ethoxypyridin-3-yl)-3-(1H-tetrazol-5-yl)phenyl]cyclopro-panecarboxamide], the IC50 stood at 6 nM on human B1 receptor (setting [2]) and 10 nM in assay [1].
As for `COc1ccc(-c2ccc(NC(=O)C3CC3C3CCC(C)CC3)cc2-c2nnn[nH]2)cc1OC` (racemic) [Example 15, N-[3′,4′-dimethoxy-2-(1H-tetrazol-5-yl)biphenyl-4-yl]-2-(4-methylcyclohexyl)cyclo-propanecarboxamide], the IC50 turned out to be 5 nM on human B1 receptor (setting [3]) and 25 nM in assay [1].
As for `COc1ccc(-c2cc(F)c(NC(=O)C3CC3c3cccc(C)c3)cc2-c2nnn[nH]2)cc1` (racemic) [Example 55, N-[5-Fluoro-4′-methoxy-2-(1H-tetrazol-5-yl)biphenyl-4-yl]-2-(3-methylphenyl)cyclopro-panecarboxamide], the IC50 turned out to be 19 nM at human B1 receptor (setting [2]), 10 nM at human B1 receptor (setting [3]) and 22 nM in assay [1].
Take `CCOc1ccc(-c2ccc(NC(=O)C3CC3c3ccc(Cl)cc3)cc2-c2nnn[nH]2)cn1` (racemic) [Example 17, 2-(4-Chlorophenyl)-N-[4-(6-ethoxypyridin-3-yl)-3-(1H-tetrazol-5-yl)phenyl]cyclopro-panecarboxamide]: the IC50 at human B1 receptor (setting [2]) was 5 nM; at human B1 receptor (setting [3]), 97 nM; in assay [1], 12 nM.
Regarding `CCOc1ccc(-c2cc(C)c(NC(=O)C3CC3c3ccc(Cl)cc3)cc2-c2nnn[nH]2)cn1` (racemic) [Example 64, 2-(4-Chlorophenyl)-N-[4-(6-ethoxypyridin-3-yl)-2-methyl-5-(1H-tetrazol-5-yl)phenyl]cyclopropane-carboxamide], the IC50 at human B1 receptor (setting [2]) turned out to be 15 nM; on human B1 receptor (setting [3]) it was 37 nM; in assay [1] it was 63 nM.
For the compound `COc1ccc(-c2ccc(NC(=O)C3CC3c3cccc(Cl)c3)cc2-c2nnn[nH]2)cc1OC` (racemic) [Example 8, 2-(3-chlorophenyl)-N-[3′,4′-dimethoxy-2-(1H-tetrazol-5-yl)biphenyl-4-yl]cyclo-propanecarboxamide], the IC50 is 12 nM on human B1 receptor (setting [2]), 8 nM on human B1 receptor (setting [3]) and 8 nM in assay [1].
For the compound `CCOc1ccc(-c2cc(O)c(NC(=O)C3CC3c3ccc(Cl)cc3)cc2-c2nnn[nH]2)cn1` (single isomer, unassigned) [Example 50, 2-(4-chlorophenyl)-N-[4-(6-ethoxypyridin-3-yl)-2-hydroxy-5-(1H-tetrazol-5-yl)phenyl]cyclopropane-carboxamide], the IC50 on human B1 receptor (setting [3]) was 24 nM.
As for `CC[C@@H]1CCN(c2ccc(NC(=O)C3CC3c3ccc(Cl)cc3)cc2-c2nnn[nH]2)C1=O` (stereo partly drawn) [Example 75, 2-(4-Chlorophenyl)-N-{4-[(3R)-3-ethyl-2-oxopyrrolidin-1-yl]-3-(1H-tetrazol-5-yl)phenyl}cyclopropane-carboxamide], the IC50 at human B1 receptor (setting [2]) is 458 nM.
As to `CCOc1ccc(-c2ccc(NC(=O)C3CC3c3ccc(F)cc3)cc2-c2nnn[nH]2)cn1` (racemic) [Example 16, N-[4-(6-ethoxypyridin-3-yl)-3-(1H-tetrazol-5-yl)phenyl]-2-(4-fluorophenyl)cyclopro-panecarboxamide], at human B1 receptor (setting [3]), the half-inhibitory concentration (IC50) is 15 nM.
